{"source": "paper PMC9104798", "about": "“Plant Alkaloid Tetrandrine Is a Nuclear Receptor 4A1 Antagonist and Inhibits Panc-1 Cell Growth In Vitro and In Vivo” (International Journal of Molecular Sciences, 2022)", "molecular_target": "nuclear receptor 4A1 (NR4A1) (Homo sapiens, UniProt P22736)", "sequence (P22736 351-598 limits assumed)": "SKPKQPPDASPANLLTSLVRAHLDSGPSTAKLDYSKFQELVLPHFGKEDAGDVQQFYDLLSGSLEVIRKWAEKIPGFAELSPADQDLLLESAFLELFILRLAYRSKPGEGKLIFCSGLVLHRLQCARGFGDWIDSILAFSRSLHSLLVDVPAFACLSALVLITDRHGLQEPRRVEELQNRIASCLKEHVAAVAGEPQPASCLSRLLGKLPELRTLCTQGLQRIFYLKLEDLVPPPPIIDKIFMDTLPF", "experiment": "tryptophan fluorescence quenching with NR4A1 LBD ([…])", "type": "binding", "data": [{"compound": "COc1ccc2cc1Oc1ccc(cc1)C[C@H]1c3cc(c(OC)cc3CCN1C)Oc1c(OC)c(OC)cc3c1[C@H](C2)N(C)CC3", "note": "[TTD, tetrandrine]", "values": [{"measurement": "Kd", "value": 10.6, "unit": "µM"}]}]}
